{"source": "patent US20210102200A1", "about": "“SMALL MOLECULE TARGETED RECRUITMENT OF A NUCLEASE TO RNA” (The Scripps Research Institute, priority 2018, published 2021)", "key": {"[1]": {"biological_target": "pri-miR-96's Drosha site", "conditions": "parent compound, pri-miR-96 Drosha site; cited from earlier work"}, "[2]": {"test_system": "pri-miR-96", "experiment": "In vitro cleavage of pri-miR-96 by RNase L (fluorescence-based and gel mapping)", "format": "biochemical", "conditions": "in vitro competition", "from_the_text": "Determination of RNA cleavage by fluorescence: A model RNase L substrate RNA1 labeled with a 5′ 6-Fluorescein and 3′ Iowa Black® FQ (5′-6FAM-UUAUCAAAU […] 3′ (SEQ ID NO: 1)—Iowa Black® FQ: RNA 1) was purchased from Integrated DNA Technologies, Inc. (IDT), which also HPLC purified the oligonucleotide. A model of pri-miR-96 RNA labeled with 5′ 6-Fluorescein and 3′ Quencher (IQ4, structure undisclosed) (5′-6FAM […] […] 3′ (SEQ ID NO: 2)—IQ4: RNA 2) was purchased from and HPLC purified by Chemgenes. Solutions of RNA 1 or RNA 2 were folded at 70° C. for 5 min and cooled to room temperature in RNase L Buffer without MgCl2, β-mercaptoethanol or ATP. After cooling, the RNA was supplemented with 10 mM MgCl2, fresh 7 mM β-mercaptoethanol, and 50 μM of ATP. […] Fluorescence intensity (Ex: 485 nm, Em: 528 nm) was measured on a BioTek FLx800 plate reader. Relative Fluorescence Enhancement was calculated by normalizing the fluorescent signal of treated RNA samples to the fluorescent signal of untreated RNA samples. Percentage RNA Cleavage was calculated by normalizing sample fluorescent signals relative to the maximum fluorescent signal, set as 100%. […] Normalized RNA Cleavage was calculated by normalizing sample fluorescent signals relative to the maximum fluorescent signal (compound with no tRNA), set as 1. […]"}, "[3]": {"test_system": "pri-miR-96", "experiment": "pri-miR-96 levels / cleavage in cells by RT-qPCR", "format": "cell-based", "protocol": "(§1) Cell culture: All cells were maintained at 37° C. with 5% CO2. MDA-MB-231 (HTB-26, ATCC) cells were cultured in RPMI 1640 medium with L-glutamine & 25 mM HEPES (Corning) supplemented with 10% FBS (Sigma) and 1×Antibiotic-Antimycotic (Corning). A549 (CCL-185, ATCC), HeLa (CCL-2, ATCC), and MCF7 (HTB-22, ATCC) cells were cultured in DMEM medium with 4.5 g/L glucose (Corning), supplemented with 10% FBS (Sigma), 1×Glutagro (Corning), and 1×Antibiotic-Antimycotic (Corning). MCF10a (CRL-10317, ATCC) cells were cultured in DMEM/F12 50/50 with L-glutamine & 15 mM HEPES (Corning), supplemented with 10% FBS (Sigma), 20 ng/mL human epidermal growth factor (Pepro Tech Inc.), […] hydrocortisone (Pfaltz & Bauer), 100 ng/mL cholera toxin (Sigma-Alrich), 10 μg/mL insulin (Sigma-Aldrich), and 1×Antibiotic-Antimycotic (Corning). […]\n(§2) RNA isolation and RT-qPCR: Total RNA was extracted from untreated and treated cells by using a Quick-RNA MiniPrep (Zymo Research) per the manufacturer's protocol. […] RNA expression levels were determined using the ΔΔCt method and normalized with U6 small nuclear RNA as a housekeeping gene. Upon treatment with chimeric compound 2, relative cleavage levels were calculated according to equation 2 (Eq. 2) in order to control for the effect of parent compound 1a, on pri-miR-96 expression: […]"}, "[4]": {"test_system": "mature miR-96", "experiment": "Mature miR-96 levels in cells by RT-qPCR", "format": "cell-based", "conditions": "MDA-MB-231 cells", "protocol": "as §1, §2"}}, "note": "Entries after “also recorded” stand apart in the source; their conditions may differ.", "data": [{"substance": "Targaprimir-96 [Compound 1a]", "values": [{"measurement": "Kd", "setting": "[1]", "value": 20, "unit": "nM"}, {"measurement": "Cleavage at U12 by 2 upon addition of the parent compound", "setting": "[2]", "value": "inhibited"}, {"measurement": "pri-miR-96 levels", "setting": "[3]; MDA-MB-231 cells, RT-qPCR", "value": "increased; also recorded: boosted"}, {"measurement": "2-mediated pri-miR-96 cleavage upon co-treatment with 1a", "setting": "[3]; constant concentration of 2, increasing concentrations of 1a", "value": "decreased pri-miR-96 cleavage levels in a dose dependent fashion; also recorded: reduced"}, {"measurement": "mature miR-96 levels", "setting": "[4]", "value": "reduced"}]}]}
